Experimental data from ChEMBL document CHEMBL1201862, “PubChem BioAssay data set” (2004).
The source made the active and inactive calls.

Tests used:
Format in all cases: functional
[1] = target: MAP/microtubule affinity-regulating kinase 3 (Homo sapiens, UniProt P27448);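 further: MARK3 affinity measured as one member of a kinome panel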
[2] = target: Cyclin-dependent kinase 1 (Homo sapiens, UniProt P06493);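 further: Kinome-wide panel profiling, with the target listed as panel member CDC2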
[3] = target: Serine/threonine-protein kinase PLK4 (Homo sapiens, UniProt O00444);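 further: PLK4 measured as one member of a kinome-wide kinase profiling panel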
[4] = target: Cyclin-dependent kinase 5 (Homo sapiens, UniProt Q00535);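 further: CDK5 measured as one member of a kinase profiling panel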
[5] = target: Receptor tyrosine-protein kinase erbB-4 (Homo sapiens, UniProt Q15303);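 further: ERBB4 member of a kinome-wide kinase profiling panel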
[6] = target: Hepatocyte growth factor receptor (Homo sapiens, UniProt P08581);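 further: kinase panel profiling across the kinome, with MET as the panel member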
[7] = target: Tyrosine-protein kinase ABL1 (Homo sapiens, UniProt P00519)
[8] = target: Calcium/calmodulin-dependent protein kinase type 1 (Homo sapiens, UniProt Q14012)
[9] = target: Serine/threonine-protein kinase PAK 1 (Homo sapiens, UniProt Q13153)
[10] = target: Mast/stem cell growth factor receptor Kit (Homo sapiens, UniProt P10721);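 further: KIT entry within a kinase panel assay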
[11] = target: 3-phosphoinositide-dependent protein kinase 1 (Homo sapiens, UniProt O15530);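 further: value comes from the Navigating the Kinome panel, PDPK1 member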
[12] = target: T1, Interleukin-1 receptor-associated kinase 4 (Homo sapiens, UniProt Q9NWZ3)
T1 sequence (Q9NWZ3 whole entry): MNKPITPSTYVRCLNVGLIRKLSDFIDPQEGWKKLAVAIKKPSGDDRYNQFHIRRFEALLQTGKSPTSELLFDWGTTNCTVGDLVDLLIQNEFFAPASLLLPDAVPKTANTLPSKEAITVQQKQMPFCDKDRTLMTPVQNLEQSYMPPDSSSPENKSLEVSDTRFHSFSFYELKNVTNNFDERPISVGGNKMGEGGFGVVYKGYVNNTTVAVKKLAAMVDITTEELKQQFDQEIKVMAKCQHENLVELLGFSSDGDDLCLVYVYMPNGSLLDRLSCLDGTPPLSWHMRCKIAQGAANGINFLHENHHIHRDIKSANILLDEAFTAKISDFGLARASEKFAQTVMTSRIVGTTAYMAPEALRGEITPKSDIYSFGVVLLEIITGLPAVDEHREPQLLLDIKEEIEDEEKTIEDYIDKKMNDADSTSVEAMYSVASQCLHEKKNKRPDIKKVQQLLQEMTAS

[13] = target: Ephrin type-A receptor 2 (Homo sapiens, UniProt P29317);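 further: EPHA2 tested as one member of a kinome-wide kinase panel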
[14] = target: Tyrosine-protein kinase Lyn (Homo sapiens, UniProt P07948);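 further: lyn as one member of a kinase panel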
[15] = target: Fibroblast growth factor receptor 3 (Homo sapiens, UniProt P22607)
[16] = target: Proto-oncogene tyrosine-protein kinase Src (Homo sapiens, UniProt P12931);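 further: SRC entry within a kinome-wide kinase profiling panel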
[17] = target: Serine/threonine-protein kinase D2 (Homo sapiens, UniProt Q9BZL6);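 further: measured against PRKD2 as one member of a kinome-wide kinase profiling panel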
[18] = target: Serine/threonine-protein kinase 3 (Homo sapiens, UniProt Q13188);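 further: measured as one member of a kinome-wide kinase panel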
[19] = target: BDNF/NT-3 growth factors receptor (Homo sapiens, UniProt Q16620);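 further: NTRK2 measured as one member of a broad kinome-wide kinase profiling panel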
[20] = target: T2, Aurora kinase A (Homo sapiens, UniProt O14965);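 further: value from the Navigating the Kinome kinase panel profiling, panel entry STK6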
T2 sequence (O14965 whole entry): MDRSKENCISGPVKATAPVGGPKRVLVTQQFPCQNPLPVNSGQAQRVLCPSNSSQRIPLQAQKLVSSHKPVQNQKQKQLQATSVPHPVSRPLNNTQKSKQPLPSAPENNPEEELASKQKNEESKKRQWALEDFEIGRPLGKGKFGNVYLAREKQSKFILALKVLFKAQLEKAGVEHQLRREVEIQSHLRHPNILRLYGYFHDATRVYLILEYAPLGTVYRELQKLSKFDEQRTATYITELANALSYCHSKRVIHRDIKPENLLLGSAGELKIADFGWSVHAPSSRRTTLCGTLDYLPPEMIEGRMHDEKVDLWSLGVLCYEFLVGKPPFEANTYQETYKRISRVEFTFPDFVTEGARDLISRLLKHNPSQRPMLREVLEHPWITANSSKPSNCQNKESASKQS

[21] = target: Non-receptor tyrosine-protein kinase TYK2 (Homo sapiens, UniProt P29597)
[22] = target: Serine/threonine-protein kinase PAK 4 (Homo sapiens, UniProt O96013);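 further: value obtained within a kinome profiling panel in which PAK4 was one of the panel members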
[23] = target: Vascular endothelial growth factor receptor 3 (Homo sapiens, UniProt P35916);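 further: value from a kinome-wide profiling panel, with FLT4 as the panel member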
[24] = target: Mitogen-activated protein kinase 1 (Homo sapiens, UniProt P28482)
[25] = target: Insulin receptor (Homo sapiens, UniProt P06213);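 further: insulin receptor kinase tested as one member of a kinome-wide kinase panel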
[26] = target: Rho-associated protein kinase 1 (Homo sapiens, UniProt Q13464);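 further: measured within a broad kinome-wide panel profiling many kinases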
[27] = target: Insulin-like growth factor 1 receptor (Homo sapiens, UniProt P08069); assay: Navigating the Kinome. Panel member name: IGF1R
[28] = target: Receptor tyrosine-protein kinase erbB-2 (Homo sapiens, UniProt P04626); assay: Navigating the Kinome. Panel member name: ERBB2
[29] = target: Aurora kinase B (Homo sapiens, UniProt Q96GD4)
[30] = target: Mitogen-activated protein kinase 8 (Homo sapiens, UniProt P45983);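 further: value comes from one member of a kinome-wide kinase profiling panel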
[31] = target: Death-associated protein kinase 3 (Homo sapiens, UniProt O43293);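 further: measured as one member of a kinome-wide profiling panel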
[32] = target: 5'-AMP-activated protein kinase catalytic subunit alpha-1 (Homo sapiens, UniProt Q13131)

BDNF/NT-3 growth factors receptor, sequence (Q16620 whole entry): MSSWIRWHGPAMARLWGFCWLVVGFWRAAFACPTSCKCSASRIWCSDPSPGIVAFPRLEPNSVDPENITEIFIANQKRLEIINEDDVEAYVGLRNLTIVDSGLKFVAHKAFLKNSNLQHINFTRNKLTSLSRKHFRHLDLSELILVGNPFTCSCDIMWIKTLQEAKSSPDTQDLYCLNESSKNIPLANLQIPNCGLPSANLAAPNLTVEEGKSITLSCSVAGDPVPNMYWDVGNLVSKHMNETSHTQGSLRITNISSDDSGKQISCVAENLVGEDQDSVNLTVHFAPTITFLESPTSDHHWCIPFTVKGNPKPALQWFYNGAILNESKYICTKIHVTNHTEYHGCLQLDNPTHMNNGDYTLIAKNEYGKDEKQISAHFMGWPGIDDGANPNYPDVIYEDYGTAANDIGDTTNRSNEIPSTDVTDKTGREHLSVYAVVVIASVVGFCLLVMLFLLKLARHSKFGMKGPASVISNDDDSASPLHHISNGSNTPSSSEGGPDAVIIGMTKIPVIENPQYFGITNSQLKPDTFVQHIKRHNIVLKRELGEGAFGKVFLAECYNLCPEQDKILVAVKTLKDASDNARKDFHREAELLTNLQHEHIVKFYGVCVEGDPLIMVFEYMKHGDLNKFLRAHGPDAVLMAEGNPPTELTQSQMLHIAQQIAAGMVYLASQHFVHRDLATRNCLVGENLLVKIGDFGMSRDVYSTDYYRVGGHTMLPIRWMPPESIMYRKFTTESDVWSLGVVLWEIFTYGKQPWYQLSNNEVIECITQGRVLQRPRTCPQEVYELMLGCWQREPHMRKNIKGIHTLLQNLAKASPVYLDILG
Tyrosine-protein kinase Lyn, sequence (P07948 whole entry): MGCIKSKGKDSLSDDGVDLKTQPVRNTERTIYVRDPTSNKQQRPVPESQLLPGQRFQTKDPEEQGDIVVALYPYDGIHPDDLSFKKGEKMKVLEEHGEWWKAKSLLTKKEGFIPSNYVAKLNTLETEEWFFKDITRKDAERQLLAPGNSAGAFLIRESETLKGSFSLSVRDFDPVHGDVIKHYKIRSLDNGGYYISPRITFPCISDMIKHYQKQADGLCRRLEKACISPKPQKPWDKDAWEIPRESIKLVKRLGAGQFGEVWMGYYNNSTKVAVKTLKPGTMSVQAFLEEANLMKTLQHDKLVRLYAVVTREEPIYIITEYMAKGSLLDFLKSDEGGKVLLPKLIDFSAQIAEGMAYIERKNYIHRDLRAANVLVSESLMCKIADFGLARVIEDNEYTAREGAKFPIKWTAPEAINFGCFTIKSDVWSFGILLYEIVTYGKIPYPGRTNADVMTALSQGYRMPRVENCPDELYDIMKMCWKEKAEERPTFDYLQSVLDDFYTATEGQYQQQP
Calcium/calmodulin-dependent protein kinase type 1, sequence (Q14012 whole entry): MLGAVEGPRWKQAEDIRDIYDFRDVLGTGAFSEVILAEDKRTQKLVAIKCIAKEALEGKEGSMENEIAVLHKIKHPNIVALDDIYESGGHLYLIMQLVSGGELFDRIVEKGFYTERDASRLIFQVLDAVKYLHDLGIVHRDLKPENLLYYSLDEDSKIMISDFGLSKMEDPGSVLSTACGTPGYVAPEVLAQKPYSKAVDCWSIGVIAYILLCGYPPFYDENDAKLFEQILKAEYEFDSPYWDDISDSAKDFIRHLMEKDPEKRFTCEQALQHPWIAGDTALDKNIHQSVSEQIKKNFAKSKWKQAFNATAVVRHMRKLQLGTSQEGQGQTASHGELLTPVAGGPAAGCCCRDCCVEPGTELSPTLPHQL
Ephrin type-A receptor 2, sequence (P29317 whole entry): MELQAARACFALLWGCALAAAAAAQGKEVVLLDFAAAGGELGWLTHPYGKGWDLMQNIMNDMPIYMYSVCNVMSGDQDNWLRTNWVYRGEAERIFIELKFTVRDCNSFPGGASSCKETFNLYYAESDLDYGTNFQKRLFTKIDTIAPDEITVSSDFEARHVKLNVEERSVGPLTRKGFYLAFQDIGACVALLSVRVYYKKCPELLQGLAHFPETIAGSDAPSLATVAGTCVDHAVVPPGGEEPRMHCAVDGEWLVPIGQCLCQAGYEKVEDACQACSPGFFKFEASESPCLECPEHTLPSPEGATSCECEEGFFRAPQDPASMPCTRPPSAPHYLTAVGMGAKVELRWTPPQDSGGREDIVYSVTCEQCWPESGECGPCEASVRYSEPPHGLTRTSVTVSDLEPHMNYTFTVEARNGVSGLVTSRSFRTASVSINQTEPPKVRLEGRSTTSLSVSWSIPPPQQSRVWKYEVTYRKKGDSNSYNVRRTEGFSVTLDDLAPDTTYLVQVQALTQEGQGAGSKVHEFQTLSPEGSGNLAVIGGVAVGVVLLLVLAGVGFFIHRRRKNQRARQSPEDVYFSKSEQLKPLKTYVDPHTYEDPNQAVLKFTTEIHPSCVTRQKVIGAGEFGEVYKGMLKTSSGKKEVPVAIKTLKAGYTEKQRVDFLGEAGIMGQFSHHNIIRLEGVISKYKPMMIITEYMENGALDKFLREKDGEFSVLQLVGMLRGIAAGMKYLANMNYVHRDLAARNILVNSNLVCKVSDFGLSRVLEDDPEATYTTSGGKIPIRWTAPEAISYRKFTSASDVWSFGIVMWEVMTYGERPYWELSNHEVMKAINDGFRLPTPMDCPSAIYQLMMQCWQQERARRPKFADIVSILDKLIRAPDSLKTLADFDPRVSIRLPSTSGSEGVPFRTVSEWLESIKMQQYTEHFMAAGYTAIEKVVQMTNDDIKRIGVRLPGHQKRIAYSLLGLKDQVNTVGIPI
Receptor tyrosine-protein kinase erbB-4, sequence (Q15303 whole entry): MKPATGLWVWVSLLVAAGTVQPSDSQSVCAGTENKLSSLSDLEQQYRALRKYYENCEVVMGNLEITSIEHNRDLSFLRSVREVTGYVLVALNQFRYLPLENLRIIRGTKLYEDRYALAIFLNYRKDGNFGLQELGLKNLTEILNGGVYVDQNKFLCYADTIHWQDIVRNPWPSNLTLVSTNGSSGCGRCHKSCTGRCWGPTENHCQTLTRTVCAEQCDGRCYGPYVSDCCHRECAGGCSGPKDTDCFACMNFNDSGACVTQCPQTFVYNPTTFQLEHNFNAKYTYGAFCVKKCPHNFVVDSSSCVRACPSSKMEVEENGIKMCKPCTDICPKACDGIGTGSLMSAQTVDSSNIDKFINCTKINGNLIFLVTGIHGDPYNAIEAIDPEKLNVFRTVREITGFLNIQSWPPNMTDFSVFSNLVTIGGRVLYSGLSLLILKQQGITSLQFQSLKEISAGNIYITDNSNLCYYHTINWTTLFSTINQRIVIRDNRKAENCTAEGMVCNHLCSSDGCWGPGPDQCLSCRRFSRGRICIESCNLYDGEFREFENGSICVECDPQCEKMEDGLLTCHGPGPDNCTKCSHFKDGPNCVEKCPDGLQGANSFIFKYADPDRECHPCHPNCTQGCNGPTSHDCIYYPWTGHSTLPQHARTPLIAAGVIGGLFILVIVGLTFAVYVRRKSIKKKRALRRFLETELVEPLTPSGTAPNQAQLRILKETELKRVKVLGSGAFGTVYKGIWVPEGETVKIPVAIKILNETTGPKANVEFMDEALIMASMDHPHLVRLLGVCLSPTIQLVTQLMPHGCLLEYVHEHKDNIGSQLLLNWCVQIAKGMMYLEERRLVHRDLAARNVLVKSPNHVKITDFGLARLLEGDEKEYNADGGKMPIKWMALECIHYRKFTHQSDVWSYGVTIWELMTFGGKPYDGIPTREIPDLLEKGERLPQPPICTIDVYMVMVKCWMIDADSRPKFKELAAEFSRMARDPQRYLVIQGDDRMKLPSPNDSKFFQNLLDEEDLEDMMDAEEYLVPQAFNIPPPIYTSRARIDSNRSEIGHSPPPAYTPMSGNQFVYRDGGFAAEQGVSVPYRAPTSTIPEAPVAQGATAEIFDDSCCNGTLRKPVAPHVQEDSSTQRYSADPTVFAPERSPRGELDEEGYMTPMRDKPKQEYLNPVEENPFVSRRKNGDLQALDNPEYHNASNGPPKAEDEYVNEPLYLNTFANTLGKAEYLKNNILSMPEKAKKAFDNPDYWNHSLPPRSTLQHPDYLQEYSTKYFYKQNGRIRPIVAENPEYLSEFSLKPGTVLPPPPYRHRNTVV
3-phosphoinositide-dependent protein kinase 1, sequence (O15530 whole entry): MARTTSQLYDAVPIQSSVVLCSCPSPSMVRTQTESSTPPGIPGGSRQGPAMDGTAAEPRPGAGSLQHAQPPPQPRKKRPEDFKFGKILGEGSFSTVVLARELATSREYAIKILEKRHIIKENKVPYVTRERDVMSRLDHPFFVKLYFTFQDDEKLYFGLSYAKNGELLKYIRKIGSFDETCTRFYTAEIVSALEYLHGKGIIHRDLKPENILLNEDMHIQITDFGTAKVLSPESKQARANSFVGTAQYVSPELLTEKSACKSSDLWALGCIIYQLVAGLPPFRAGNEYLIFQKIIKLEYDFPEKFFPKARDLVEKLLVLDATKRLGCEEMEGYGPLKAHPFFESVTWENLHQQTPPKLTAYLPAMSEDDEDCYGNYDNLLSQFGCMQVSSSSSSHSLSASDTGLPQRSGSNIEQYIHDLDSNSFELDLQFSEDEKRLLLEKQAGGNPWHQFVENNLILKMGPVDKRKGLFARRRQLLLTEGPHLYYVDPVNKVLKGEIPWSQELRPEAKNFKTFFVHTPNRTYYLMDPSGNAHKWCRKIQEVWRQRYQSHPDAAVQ
Aurora kinase B, sequence (Q96GD4 whole entry): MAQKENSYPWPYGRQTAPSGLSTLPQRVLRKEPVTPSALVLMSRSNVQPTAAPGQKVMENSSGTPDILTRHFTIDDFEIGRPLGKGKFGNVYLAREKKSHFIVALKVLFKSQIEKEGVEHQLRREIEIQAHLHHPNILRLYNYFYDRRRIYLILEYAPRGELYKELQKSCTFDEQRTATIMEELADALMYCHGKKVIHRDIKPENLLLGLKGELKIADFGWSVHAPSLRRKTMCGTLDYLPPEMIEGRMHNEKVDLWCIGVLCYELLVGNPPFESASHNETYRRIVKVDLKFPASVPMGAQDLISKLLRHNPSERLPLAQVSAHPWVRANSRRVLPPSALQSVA

Cc1c(C=O)c(O)n2c(nc3ccccc32)c1C#N
Ki [1]: > 6.31 µM (inactive)
Ki [2]: > 7.94 µM (inactive)
Ki [3]: 0.794 µM (active)
Ki [4]: > 10 µM (inactive)
Ki [5]: > 3.98 µM (inactive)
Ki [6]: > 3.16 µM (inactive)
Ki [7]: > 0.631 µM (inactive)
Ki [8]: > 7.94 µM (inactive)
Ki [9]: > 10 µM (inactive)
Ki [10]: > 1.26 µM (inactive)
Ki [11]: > 3.98 µM (inactive)
Ki [12]: 3.98 µM (active)
Ki [13]: > 3.16 µM (inactive)
Ki [14]: 1.58 µM (active)
Ki [15]: > 2 µM (inactive)
Ki [16]: 1.58 µM (active)
Ki [17]: > 10 µM (inactive)
Ki [18]: 5.01 µM (active)
Ki [19]: > 5.01 µM (inactive)
Ki [20]: 0.794 µM (active)
Ki [21]: > 2 µM (inactive)
Ki [22]: > 5.01 µM (inactive)
Ki [23]: 0.794 µM (active)
Ki [24]: > 7.94 µM (inactive)
Ki [25]: > 5.01 µM (inactive)
Ki [26]: > 10 µM (inactive)
Ki [27]: > 1 µM (inactive)
Ki [28]: > 1.58 µM (inactive)
Ki [29]: 6.31 µM (active)
Ki [30]: > 3.16 µM (inactive)
Ki [31]: 1 µM (active)
Ki [32]: > 10 µM (inactive)

Cc1n[nH]c2cnc(-c3cncc(OCC(N)Cc4cccc(C(F)(F)F)c4)c3)cc12 (centres undefined)
Ki [1]: 0.0631 µM (active)
Ki [2]: 0.0316 µM (active)
Ki [3]: 2.51 µM (active)
Ki [4]: 0.0631 µM (active)
Ki [5]: > 3.98 µM (inactive)
Ki [6]: > 3.16 µM (inactive)
Ki [7]: > 0.631 µM (inactive)
Ki [8]: 0.501 µM (active)
Ki [9]: 2 µM (active)
Ki [10]: > 1.26 µM (inactive)
Ki [11]: 0.2 µM (active)
Ki [12]: 0.398 µM (active)
Ki [13]: > 3.16 µM (inactive)
Ki [14]: > 1.58 µM (inactive)
Ki [15]: > 2 µM (inactive)
Ki [16]: > 2 µM (inactive)
Ki [17]: 0.251 µM (active)
Ki [18]: 0.0794 µM (active)
Ki [19]: > 5.01 µM (inactive)
Ki [20]: > 1.58 µM (inactive)
Ki [21]: > 2 µM (inactive)
Ki [22]: 0.398 µM (active)
Ki [23]: 3.16 µM (active)
Ki [24]: 0.631 µM (active)
Ki [25]: > 5.01 µM (inactive)
Ki [26]: 0.00794 µM (active)
Ki [27]: > 2 µM (inactive)
Ki [28]: > 1.58 µM (inactive)
Ki [29]: 3.16 µM (active)
Ki [30]: > 3.16 µM (inactive)
Ki [31]: 0.00398 µM (active)
Ki [32]: 0.0126 µM (active)
